Target: Aβ plaques (Homo sapiens, UniProt P05067)
Experiment: Ex vivo autoradiography of APP/PS1 Tg and WT mouse brain sections
Type: in vivo
Conditions: for target/reference count intensity ratio (mean ± SD): 30 min post injection, cortex and amygdala vs hypothalamus; for target/reference count intensity ratio: brain stem as reference region
Experimental: Uptake in brain and other critical organs was analyzed in terms of percent injected dose per gram of the tissue (%ID/g) SI Table 1. For in vivo imaging of Aβ plaques, the basic pharmacokinetic model in normal brains involves a high initial penetration of the agent, accompanied by facile clearance due to lack of a binding target. […] For comparison, brain uptake ratios of [^18F]-AV-45 (2 min/2 h) and [^18F]-Florbetaben (2 min/4 h) in normal mice are 4.07 (%ID/g (brain): 2 min: 7.33 ± 1.54; 2 h: 1.80 ± 0.07; 7.33/1.80; 4.07)[10] and 5.0 (%ID/g (brain): 2 min: 4.77; 4 h: 0.95; 4.77/0.95; 5.02)[46], respectively. […] For an agent to be able to serve as an Aβ-imaging agent, literature precedents indicate that brain uptake ratio (%ID/g; the earliest time–point; 2–5 min to that of the latest time point; typically for carbon-11; 30–60 min; and F-18, 2 h) of 3.5 or above could be considered as a benchmark for ability of a given agent to cross the blood-brain barrier. Additionally, the brain uptake of a given imaging agent is also a net function of several components, such as cerebral regional blood flow, BBB permeability, plasma radiotracer concentration, and free fractions of the radiotracer in plasma and in the brain. Furthermore, the lipophilicity of a given compound also reflects a critical physicochemical trait for neuroimaging radiotracers due to its direct relationship to membrane permeability, solubility in water, and entropic contribution to binding. Literature precedents indicate that lipophilic drugs readily cross the BBB, although other chemical characteristics, including the number of hydrogen bonds, molecular weight, polar surface area and molecular size are also known to be critical traits for passive transport. […] Conversely, radiotracers that are too lipophilic can also bind plasma proteins, undergo fast metabolism, while also contributing to high nonspecific binding, such as white matter. […] For ROI analysis of the PET signal in brain section autoradiograms of transgenic mouse (Fig. 7A) and its WT counterpart (Fig. 7D), we used measured count densities in cortex and amygdala target regions and compared them with that of hypothalamus as reference region with a low plaque density as determined by Aβ immunostaining (Fig. 7B). […] Since brain stem was also devoid of plaques, we also analyzed the above target regions using brain stem as a reference region, and observed target/reference value in the transgenic to be 0.89 ± 0.1 compared to 0.45 ± 0.07 in the WT mouse. […]

Chain of Aβ plaques (P05067 672-711 limits assumed): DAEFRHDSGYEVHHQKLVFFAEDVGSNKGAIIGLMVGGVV

CN(C)c1ncc(/C=C\c2nc3cc(OCC[18F])ccc3[se]2)cn1 [[^18F]-9]
target/reference count intensity ratio (mean ± SD) (24 months APP/PS1 transgenic mouse): 1.88 ± 0.22
target/reference count intensity ratio (APP/PS1 transgenic mouse): 0.89 ± 0.1
target/reference count intensity ratio (mean ± SD) (WT control mouse): 0.96 ± 0.12
target/reference count intensity ratio (WT mouse): 0.45 ± 0.07
